Data published in PMC7248705, “A Pharmacokinetic and Pharmacodynamic Evaluation of the Anti-Hepatocellular Carcinoma Compound 4-N-Carbobenzoxy-gemcitabine (Cbz-dFdC)” (Molecules, 2020).
Like-named read-outs stand apart in the source and are kept apart here.

What was measured:
cytidine kinase = test system: cytidine kinase; set-up: method as in PMID 1718594, PMID 1740680, PMID 8033147, PMID 12127861, PMID 23230131; settings: after intravenous injection; cited from earlier work
[1] = set-up: method as in PMID 22099048; settings: humans, after intravenous injection; cited from earlier work
[2] = Tissue distribution (liver, kidney, intestine); format: in vivo, SD rats; settings: rats; drug concentration in tissue lower than plasma concentration
Method: In order to investigate the drug distribution in different tissues and the relationship between CES1 activity and tissue concentration, we conducted tissue distribution experiments. The SD rats were divided into six groups (n = 6 for each group). After a single intragastric administration of Cbz-dFdC (22 mg/kg) and a single injected administration of dFdC (15 mg/kg), the SD rats were sacrificed at 0.5 h, 1.5 h, and 4 h, and the liver, kidney, and intestine were collected. The liver was perfused with ice-cold normal saline and then removed, followed by ice-cold normal saline cleaning. The kidney and intestine were directly removed and then washed with ice-cold normal saline. All of the above operations were carried out on ice, and the removed tissue was stored in an ice bath. The liver, kidney, and intestine were cut and crushed, homogenized with an appropriate amount of phosphate buffer by a homogenizer, and then diluted 5 times with ice-cold PBS buffer (in an ice bath). The tissue homogenates were determined with a BCA kit for protein concentration, a CES1 kit for CES1 activity, and UFLC–MS/MS for drug tissue concentration after pretreatment; the pretreatment method was reported previously.

HepG2 cells = assay: Cell uptake in HepG2 cells; format: cell-based, human
Method: (§1) The cells were cultured on a 96-well plate for 4 h for each well. Then, dimethyl sulfoxide solution containing 0.1–100 mM of Cbz-dFdC and dFdC was diluted 1000 times with the medium before administration. A total of 200 uL of medium containing Cbz-dFdC and dFdC was added per well (n = 6). The medium with drugs was discarded, and 10% CCK-8 solution was added. Then, the absorbance value was read at a wavelength of 450 nm after incubation at 37 °C, for 30 min. The drug concentration of Cbz-dFdC and dFdC in cell were determined by a previously established method.

human HepG2 cell line = assay: CCK-8 tumor cell growth inhibition assay; format: cell-based; settings: HepG2, CCK-8, concentration-dependent
Method: as §1

[3] = set-up: method as in PMID 22099048; settings: rats, after intravenous injection; cited from earlier work
[4] = set-up: method as in PMID 22099048; settings: cited from earlier work
[5] = Plasma pharmacokinetics in vivo; settings: SD, rat, rats
Method: SD rats (n = 6) were intragastrically administered Cbz-dFdC (22 mg/kg) and intravenously injected with dFdC (15 mg/kg), and 150 μL blood samples were collected from the retro-orbital route in the right eye at 0, 5, 10, 20, and 30 min and at 1, 2, 4, 6, 12, 24, and 48 h, using heparinized tubes. Without delay, the blood was directly centrifuged at 8000× g at 4 °C for 5 min. Then, the supernatant plasma was collected and immediately extracted using a previously established method or was frozen at −80 °C until further analysis.

[6] = substrate: O=C(Nc1ccn([C@@H]2O[C@H](CO)[C@@H](O)C2(F)F)c(=O)n1)OCc1ccccc1; assay: Enzymatic kinetics in vitro, human CES1 recombinase; format: in vitro ADME; settings: other: Human CES1 Recombinase, 37 °C, 30 min, 5–200 μM Cbz-dFdC
Method: The SD rats without any treatment were sacrificed after adapting to the environment. Blank blood, the liver, the kidney, and the intestine were collected and treated as described in Section 4.4. Part of the homogenate was removed for centrifugation for 20 min at 9000× g at 4 °C, and the supernatant was obtained as tissue S9. The tissue homogenate and S9 were diluted to […] after the protein concentration was determined by the BCA kit (Abcam, Cambridge, MA, USA). Each matrix consisted of 45 uL of the matrix mixed with 5 uL of the drug dissolved in normal saline solution for about 3 min, followed by incubation at 37 °C in a water bath. Then, acetonitrile containing the internal standard was added to terminate the reaction. Human tissue S9 and human CES1 recombinase purchased from the Ruid Liver Disease Research Co., Ltd. (Shanghai, China) were incubated under the same conditions. An enzyme kinetic study was obtained from the matrix following incubation at 37 °C for 30 min with 5, 10, 20, 50, 100, or 200 μM of Cbz-dFdC. We estimated the parameters and simulated curves according to the Eadie–Hofstee method.

[7] = iv, plasma, after i.v. dFdC 15 mg/kg
[8] = plasma, 15 mg/kg, after dFdC intravenous injection
[9] = plasma, oral, 22 mg/kg, dFdC metabolized from Cbz-dFdC after i.g. Cbz-dFdC
[10] = po, plasma analyte after i.g. Cbz-dFdC 22 mg/kg

Nc1ccn([C@@H]2O[C@H](CO)[C@@H](O)C2(F)F)c(=O)n1 [dFdC, Gemcitabine]
active monophosphate, diphosphate and triphosphate metabolites, share of the dose (cytidine kinase): about 10% | half-life [1]: 12 min | tissue penetration [2]: weak tissue penetration | intracellular concentration (cell uptake) (HepG2 cells): higher than that of dFdC, after the Cbz-dFdC treatment | cytotoxicity / tumor cell growth inhibition (human HepG2 cell line): better than that of Cbz-dFdC | half-life [3]: 2.0 h | toxic effects on the gastrointestinal tract [4]: serious toxic effects on the gastrointestinal tract | AUC(0-inf) [5, 7]: 22700 ng·h/mL | Cmax [5, 7]: 14100 ng/mL | Tmax [5, 7]: 0.083 h | half-life [5, 7]: 634 ± 112 min | concentration at 12 h [5, 8]: ~200 ng/mL | concentration at 48 h [5, 8]: ~40 ng/mL | concentration at 24 h ([5]; plasma, intravenous, after i.v. dFdC 15 mg/kg): ~130 ng/mL | C0 ([5]; plasma, iv, after i.v. dFdC 15 mg/kg, read-out: initial plasma concentration): ~15000 ng/mL | concentration at 24 h ([5]; plasma, oral, 22 mg/kg, after i.g. Cbz-dFdC): ~300 ng/mL | concentration at 12 h [5, 9]: ~600 ng/mL | concentration at 48 h [5, 9]: ~130 ng/mL | AUC(0-inf) [5, 10]: 27500 ng·h/mL | Cmax [5, 10]: 1660 ± 432 ng/mL | Tmax [5, 10]: 4 h | half-life [5, 10]: 626 ± 54.6 min

B1: Human CES1 Recombinase (Homo sapiens) (protein)
chain: GHPSSPPVVDTVHGKVLGKFVSLEGFAQPVAIFLGIPFAKPPLGPLRFTPPQPAEPWSFVKNATSYPPMCTQDPKAGQLLSELFTNRKENIPLKLSEDCLYLNIYTPADLTKKNRLPVMVWIHGGGLMVGAASTYDGLALAAHENVVVVTIQYRLGIWGFFSTGDEHSRGNWGHLDQVAALRWVQDNIASFGGNPGSVTIFGESAGGESVSVLVLSPLAKNLFHRAISESGVALTSVLVKKGDVKPLAEQIAITAGCKTTTSAVMVHCLRQKTEEELLETTLKMKFLSLDLQGDPRESQPLLGTVIDGMLLLKTPEELQAERNFHTVPYMVGINKQEFGWLIPMQLMSYPLSEGQLDQKTAMSLLWKSYPLVCIAKELIPEATEKYLGGTDDTVKKKDLFLDLIADVMFGVPSVIVARNHRDAGAPTYMYEFQYRPSFSSDMKPKTVIGDHGDELFSVFGAPFLKEGASEEEIRLSKMVMKFWANFARNGNPNGEGLPHWPEYNQKEGYLQIGANTQAAQKLKDKEVAFWTNLFAKKAVEKPPQTEHIEL
notes: purchased Ruid Liver Disease Research Co., Ltd. (Shanghai, China)
Km ([6]; appearance of dFdC): 107.2 µM | Vmax/Km ([6]; appearance of dFdC): 36500 µL/min/mg | Km ([6]; disappearance of Cbz-dFdC): 258.6 µM | Vmax/Km ([6]; disappearance of Cbz-dFdC): 72700 µL/min/mg
